Broadly, the kcat is the number of substrate molecules converted per active site and unit of time at saturation. The Kd is the constant that tells how readily two partners part at equilibrium.

The structures appear in SMILES notation.

The values below come from paper PMC10221418, “The Specific Binding and Promotion Effect of Azoles on Human Aldo-Keto Reductase 7A2” (Metabolites, 2023).

Data set [1] addresses T1, human AKR7A2 (Homo sapiens, UniProt O43488).
T1 construct: made in house; host or cells: E. coli BL21 (DE3) pLysS, pET-28a vector
The experiment in a line: Steady-state kinetics of AKR7A2 catalyzing 2-CBA in the absence or presence of azole drugs. The class given is biochemical. To be noted: for effect on catalytic efficiency (kcat/Km) of AKR7A2 catalyzing 2-CBA: compared to absence of drug; for kcat / increment of kcat/Km compared with the absence of the drug: substrate 2-CBA; for increment of kcat/Km compared with the absence of the drug: highest concentration of drug (50 μM; fluconazole 100 μM). On the procedure:
(§1) The steady-state kinetic parameters of AKR7A2 catalyzing 2-CBA were measured on a UV-2550 spectrophotometer (SHIMADZU, Japan) in the absence or presence of azole drugs. All drugs were dissolved with DMSO. Fluconazole, voriconazole, and ketoconazole were all made up of 2, 5, and 10 mM of mother solution. […] The steady-state kinetic assays were performed, as before, with some modifications. […] The reactions were initiated by the addition of 2-CBA and were monitored for 4 min at 25 °C. […] The kinetic data were fitted to the Michaelis-Menten equation [56, 57] using GraphPad Prism 8.0 (GraphPad Software, San Diego, CA, USA). The kinetic parameters Km and kcat were generated by the fitting. The resulting data were expressed as the mean ± standard deviation (SD) based on at least three independent experiments. Statistical significance was analyzed by ANOVA, and the significance was defined as * p < 0.05, ** p < 0.01, *** p < 0.001, or **** p < 0.0001.

The target in data set [2] is T1, human AKR7A2. The experiment in a line: Biacore assays: binding of azole drugs and 2-CBA to immobilized AKR7A2. To be noted: 25 °C; for kd: 1:1 binding model; for Kd: KD calculated by kd/ka. On the procedure: All experiments were performed on a Biacore 8k instrument (GE, Healthcare). According to the manufacturer’s handbook, about 1 mg/mL of freshly purified AKR7A2 protein was diluted with 10 mM sodium acetate buffer (pH 5.0) and was immobilized on a sensor chip CM5, via amine coupling, to a level of ~20,000 resonance units (RU). A reference surface was prepared in parallel with the addition of the buffer and was used for the subtraction of nonspecific binding. The analytes 2-CBA and azole drugs were diluted in a running buffer containing 2% DMSO. […] All samples were injected at a flow rate of 30 μL/min. The experimental sensorgrams were analyzed by Biacore 8k Evaluation Software Version 1.1.1.7442. The resulting curves were fitted with a 1:1 binding model, which gave the kinetic constants (ka, kd, and KD). All measurements were repeated in at least three independent experiments.

Data set [3] deals with T1, human AKR7A2. The experiment in a line: Steady-state kinetics of AKR7A2 with SSA as a substrate in the absence or presence of voriconazole. To be noted: for kcat: substrate SSA. The class given is biochemical. How it is done:
as §1, with “The steady-state kinetic parameters of AKR7A2 catalyzing 2-CBA were measured on a UV-2550 spectrophotometer (SHIMADZU, Japan) in the absence or presence of azole drugs.” left out, “The reactions were initiated by the addition of 2-CBA and were monitored for 4 min at 25 °C.” left out

Details of data set [4]: method as in PMID 12942409. The settings on record: patients, after administration; cited from earlier work.

T1 sequence (O43488 39-359): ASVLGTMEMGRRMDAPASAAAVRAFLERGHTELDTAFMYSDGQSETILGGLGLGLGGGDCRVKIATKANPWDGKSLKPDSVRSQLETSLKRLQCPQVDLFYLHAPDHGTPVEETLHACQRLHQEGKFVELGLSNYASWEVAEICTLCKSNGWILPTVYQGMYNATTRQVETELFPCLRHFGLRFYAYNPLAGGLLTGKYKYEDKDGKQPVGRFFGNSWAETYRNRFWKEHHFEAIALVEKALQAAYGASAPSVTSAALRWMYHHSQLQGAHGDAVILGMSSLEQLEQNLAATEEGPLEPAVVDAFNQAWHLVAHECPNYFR

Consider `OC(Cn1cncn1)(Cn1cncn1)c1ccc(F)cc1F` [fluconazole], for which, in data set [1], the “effect on catalytic efficiency (kcat/Km) of AKR7A2 catalyzing 2-CBA” value (from here on “effect on catalytic efficiency (kcat/Km)”) is given as “enhanced significantly” and the “increment of kcat/Km compared with the absence of the drug” value was 64%. The kcat in data set [1] (drug concentration 20 μM) turned out to be 1.195 ± 0.0173 s⁻¹. Besides, the catalytic constant (kcat) in data set [1] (drug concentration 50 μM) is 1.221 ± 0.0192 s⁻¹. Besides, the kcat in data set [1] (drug concentration 100 μM) came out at 1.072 ± 0.0185 s⁻¹. In data set [2], the kd was determined as 0.0218 ± 0.0046 s⁻¹ and the Kd is 8.11 ± 4.83 µM.

For `CC[C@@H]([C@H](C)O)n1ncn(-c2ccc(N3CCN(c4ccc(OC[C@@H]5CO[C@@](Cn6cncn6)(c6ccc(F)cc6F)C5)cc4)CC3)cc2)c1=O` [posaconazole], in data set [1], the “effect on catalytic efficiency (kcat/Km)” value is given as “enhanced significantly” and the “increment of kcat/Km compared with the absence of the drug” value came to 74%. The kcat in data set [1] (drug concentration 5 μM) is 1.239 ± 0.0212 s⁻¹. In addition, in data set [1] (drug concentration 20 μM), the kcat worked out at 1.273 ± 0.029 s⁻¹. The kcat in data set [1] (drug concentration 50 μM) amounted to 1.029 ± 0.0295 s⁻¹. Moreover, in data set [2], the kd amounted to 0.0298 ± 0.0059 s⁻¹ and the dissociation constant Kd was 1.35 ± 0.44 µM.

For `C[C@@H](c1ncncc1F)[C@](O)(Cn1cncn1)c1ccc(F)cc1F` [voriconazole], the “effect on catalysis of AKR7A2 with SSA as a substrate” value in data set [3] (concentration range of 0–50 µM) was “efficiently promote the catalysis”. The kcat in data set [3] (drug concentration 5 μM) turned out to be 1.297 ± 0.0377 s⁻¹; in data set [3] (drug concentration 20 μM), 1.306 ± 0.024 s⁻¹; in data set [3] (drug concentration 50 μM) it was 1.326 ± 0.0222 s⁻¹; in data set [1] (drug concentration 20 μM), 1.126 ± 0.0163 s⁻¹; in data set [1] (drug concentration 50 μM), 1.237 ± 0.0168 s⁻¹; in data set [1] (drug concentration 100 μM) it was 1.258 ± 0.0248 s⁻¹. The cerebrospinal fluid concentrations in data set [4] was 0.08 to 3.93 µg/mL. In data set [1], the “effect on catalytic efficiency (kcat/Km)” value is on record as “did not significantly change”. This compound showed a kd in data set [2] of 0.0168 ± 0.0072 s⁻¹. For the same compound, the Kd in data set [2] was 2.98 ± 2.11 µM.

For `CC(=O)N1CCN(c2ccc(OCC3COC(Cn4ccnc4)(c4ccc(Cl)cc4Cl)O3)cc2)CC1` (centres unmarked) [ketoconazole], the “effect on catalytic efficiency (kcat/Km)” value in data set [1] is reported as “did not significantly change”. The kcat stood at 1.302 ± 0.0268 s⁻¹ in data set [1] (drug concentration 20 μM), 1.271 ± 0.0303 s⁻¹ in data set [1] (drug concentration 50 μM) and 1.44 ± 0.0348 s⁻¹ in data set [1] (drug concentration 100 μM). Also, in data set [2], the kd is given as 12.6 ± 1.91 (s^−1) × 10^2. Moreover, the Kd in data set [2] is 1800 ± 438 µM.

As for `Clc1ccc(COC(Cn2ccnc2)c2ccc(Cl)cc2Cl)cc1` (centres unmarked) [econazole], the “effect on catalytic efficiency (kcat/Km)” value in data set [1] is “did not significantly change”. Also, the kcat in data set [1] (drug concentration 5 μM) worked out at 1.194 ± 0.0285 s⁻¹; in data set [1] (drug concentration 20 μM), 1.213 ± 0.0258 s⁻¹; in data set [1] (drug concentration 50 μM), 1.262 ± 0.0635 s⁻¹. Further, the kd in data set [2] is listed as 15.9 ± 0.72 (s^−1) × 10^2. For the same compound, the equilibrium dissociation constant (Kd) in data set [2] is 565 ± 84 µM.

`CCC(C)n1ncn(-c2ccc(N3CCN(c4ccc(OCC5COC(Cn6cncn6)(c6ccc(Cl)cc6Cl)O5)cc4)CC3)cc2)c1=O` (centres unmarked) [itraconazole]: the “effect on catalytic efficiency (kcat/Km)” value in data set [1] is recorded as “enhanced significantly”. Also, the figures for the kcat in data set [1] (drug concentration 5 μM), in data set [1] (drug concentration 20 μM) and in data set [1] (drug concentration 50 μM) were 1.342 ± 0.0237 s⁻¹, 1.219 ± 0.0167 s⁻¹ and 1.107 ± 0.023 s⁻¹, respectively. The “increment of kcat/Km compared with the absence of the drug” value in data set [1] is on record as 35%. In addition, the kd in data set [2] was 0.0263 ± 0.0035 s⁻¹. In addition, the Kd in data set [2] is 0.81 ± 0.44 µM.

With `O=Cc1ccccc1C(=O)O` [2-CBA, 2-carboxybenzaldehyde], in data set [2], the kd was 0.0229 ± 0.0202 s⁻¹ and the Kd is 19.3 ± 14.9 µM.

On to `Clc1ccc(COC(Cn2ccnc2)c2ccc(Cl)cc2Cl)c(Cl)c1` (centres unmarked) [miconazole], for which, in data set [1], the “effect on catalytic efficiency (kcat/Km)” value is “enhanced significantly” and the “increment of kcat/Km compared with the absence of the drug” value was 67%. Further, the kcat in data set [1] (drug concentration 5 μM) came out at 1.205 ± 0.0228 s⁻¹. In data set [1] (drug concentration 20 μM), the kcat turned out to be 1.196 ± 0.0235 s⁻¹. In addition, the kcat in data set [1] (drug concentration 50 μM) was found to be 1.236 ± 0.0292 s⁻¹. Besides, in data set [2], the kd worked out at 0.0536 ± 0.0017 s⁻¹ and the Kd is 84.9 ± 7.21 µM.
